Columns and labels:
HEL = experiment: cells; assay type: functional, cell-based; conditions: Homo sapiens, 48 h
Description: Antiproliferative activity against human HEL cells harboring JAK2 V617F mutant measured after 48 hrs by CellTiter-Glo assay

THP-1 = experiment: cells; assay type: ADME, cell-based; conditions: Homo sapiens
Description: Cytotoxicity against IL-4 induced JAK1/3 activated human THP1 cells preincubated for 1 hr followed by IL-4 induction and measured after 1 hr by CellTiter-Glo assay

cells = assay type: ADME, cell-based; conditions: Homo sapiens, NK92, 48 h
Description: Cytotoxicity against human NK92 cells harboring JAK1/3 measured after 48 hrs by CellTiter-Glo assay

[1] = molecular target: Tyrosine-protein kinase JAK1 (Homo sapiens, UniProt P23458); assay type: ADME
TF-1 = experiment: cells; assay type: functional, cell-based; conditions: Homo sapiens, TF-1, 48 h
Description: Antiproliferative activity against JAK2 wild-type human TF1 cells measured after 48 hrs by CellTiter-Glo assay

Tyrosine-protein kinase JAK1, sequence (P23458 whole entry): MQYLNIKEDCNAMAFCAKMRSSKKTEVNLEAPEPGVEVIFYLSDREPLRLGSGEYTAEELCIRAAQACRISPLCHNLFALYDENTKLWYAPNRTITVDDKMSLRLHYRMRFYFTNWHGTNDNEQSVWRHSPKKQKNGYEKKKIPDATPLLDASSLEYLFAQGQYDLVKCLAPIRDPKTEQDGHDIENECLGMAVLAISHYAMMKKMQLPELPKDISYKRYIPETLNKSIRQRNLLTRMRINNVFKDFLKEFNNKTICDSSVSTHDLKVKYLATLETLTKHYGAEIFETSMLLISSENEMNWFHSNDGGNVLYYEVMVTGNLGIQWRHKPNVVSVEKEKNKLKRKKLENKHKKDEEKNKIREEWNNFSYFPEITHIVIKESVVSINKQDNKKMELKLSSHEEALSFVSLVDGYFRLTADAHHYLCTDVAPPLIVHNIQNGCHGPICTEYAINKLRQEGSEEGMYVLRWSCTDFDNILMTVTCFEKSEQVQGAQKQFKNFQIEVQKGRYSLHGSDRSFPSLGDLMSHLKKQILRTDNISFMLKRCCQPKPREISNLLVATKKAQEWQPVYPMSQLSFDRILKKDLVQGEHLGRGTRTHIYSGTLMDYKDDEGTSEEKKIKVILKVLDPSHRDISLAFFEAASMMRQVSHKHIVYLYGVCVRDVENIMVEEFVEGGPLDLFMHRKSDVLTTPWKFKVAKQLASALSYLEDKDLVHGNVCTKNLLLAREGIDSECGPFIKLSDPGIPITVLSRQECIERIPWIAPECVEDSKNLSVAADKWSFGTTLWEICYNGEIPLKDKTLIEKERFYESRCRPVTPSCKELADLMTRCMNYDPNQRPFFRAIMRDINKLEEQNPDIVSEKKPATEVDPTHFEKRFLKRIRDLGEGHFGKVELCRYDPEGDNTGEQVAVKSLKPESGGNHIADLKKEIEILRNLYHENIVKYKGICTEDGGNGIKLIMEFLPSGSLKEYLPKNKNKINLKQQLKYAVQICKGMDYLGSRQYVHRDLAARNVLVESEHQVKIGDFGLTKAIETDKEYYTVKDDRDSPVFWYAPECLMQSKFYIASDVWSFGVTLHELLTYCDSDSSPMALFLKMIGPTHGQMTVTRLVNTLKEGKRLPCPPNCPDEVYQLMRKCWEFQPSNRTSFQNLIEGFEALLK

| Structure (SMILES) | IC50 (HEL) [µM] | IC50 (THP-1) [µM] | IC50 (cells) [µM] | IC50 [1] [µM] | IC50 (TF-1) [µM] |
| --- | --- | --- | --- | --- | --- |
| C=CC(=O)N1CCCC(n2nc(-c3cc(C=O)n(C)n3)c3c(N)ncnc32)C1 (stereo not given) | 8.2 | 28.8 | 23.6 | 0.215 | 7.1 |
| C=CC(=O)N1CCC(n2nc(-c3cc(C(C)(C)O)n(C)n3)c3c(N)ncnc32)C1 (stereo not given) | 4.7 | 18.5 | 22.1 | 0.104 | 2 |
